{
  "source": "paper PMC10746543",
  "about": "“Design principles for cyclin K molecular glue degraders” (Nature Chemical Biology, 2023)",
  "key": {"[1]": {"target": "T1, CDK2–cyclin A (Homo sapiens, UniProt P24941)", "T1 construct": "purchased Thermo Fisher", "test": "Lanthascreen kinase binding assay, CDK2", "description": "Lanthascreen experiments were performed using commercially available reagents (Thermo Fisher) and according to the manufacturer’s instructions."}, "[2]": {"target": "T2, CDK12–cyclin K and DDB1 (Homo sapiens, UniProt Q16531+Q9NYV4, K965R)", "T2 construct": "His6–CDK12 (a.a. 713–1,052); full-length or beta-propeller B domain deletion (ΔBPB: a.a. 396–705 deleted) constructs of His6–DDB1ΔBPB, StrepII–Avi–DDB1, or His6–Spy–DDB1; made in house; host or cells: Trichoplusia ni High Five insect cells (baculovirus)", "T2 sequence (Q9NYV4 713-1052 K965R)": "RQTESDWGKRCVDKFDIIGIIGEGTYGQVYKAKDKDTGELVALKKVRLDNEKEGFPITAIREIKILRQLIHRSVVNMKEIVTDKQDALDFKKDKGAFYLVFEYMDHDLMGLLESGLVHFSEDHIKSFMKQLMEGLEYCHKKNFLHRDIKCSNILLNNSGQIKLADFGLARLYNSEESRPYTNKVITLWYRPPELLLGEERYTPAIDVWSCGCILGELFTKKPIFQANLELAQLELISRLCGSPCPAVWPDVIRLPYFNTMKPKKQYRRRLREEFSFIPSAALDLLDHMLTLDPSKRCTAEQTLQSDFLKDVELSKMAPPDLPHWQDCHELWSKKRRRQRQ", "T2 sequence (O75909 1-267 partner)": "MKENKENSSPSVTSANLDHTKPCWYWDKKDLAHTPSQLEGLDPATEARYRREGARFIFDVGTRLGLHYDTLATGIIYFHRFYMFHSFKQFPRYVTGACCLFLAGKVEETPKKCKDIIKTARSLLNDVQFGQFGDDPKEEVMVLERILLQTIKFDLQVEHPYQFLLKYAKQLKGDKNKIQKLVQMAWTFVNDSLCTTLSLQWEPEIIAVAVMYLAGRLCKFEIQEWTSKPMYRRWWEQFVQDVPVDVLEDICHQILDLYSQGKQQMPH", "T2 sequence (Q16531 whole entry)": "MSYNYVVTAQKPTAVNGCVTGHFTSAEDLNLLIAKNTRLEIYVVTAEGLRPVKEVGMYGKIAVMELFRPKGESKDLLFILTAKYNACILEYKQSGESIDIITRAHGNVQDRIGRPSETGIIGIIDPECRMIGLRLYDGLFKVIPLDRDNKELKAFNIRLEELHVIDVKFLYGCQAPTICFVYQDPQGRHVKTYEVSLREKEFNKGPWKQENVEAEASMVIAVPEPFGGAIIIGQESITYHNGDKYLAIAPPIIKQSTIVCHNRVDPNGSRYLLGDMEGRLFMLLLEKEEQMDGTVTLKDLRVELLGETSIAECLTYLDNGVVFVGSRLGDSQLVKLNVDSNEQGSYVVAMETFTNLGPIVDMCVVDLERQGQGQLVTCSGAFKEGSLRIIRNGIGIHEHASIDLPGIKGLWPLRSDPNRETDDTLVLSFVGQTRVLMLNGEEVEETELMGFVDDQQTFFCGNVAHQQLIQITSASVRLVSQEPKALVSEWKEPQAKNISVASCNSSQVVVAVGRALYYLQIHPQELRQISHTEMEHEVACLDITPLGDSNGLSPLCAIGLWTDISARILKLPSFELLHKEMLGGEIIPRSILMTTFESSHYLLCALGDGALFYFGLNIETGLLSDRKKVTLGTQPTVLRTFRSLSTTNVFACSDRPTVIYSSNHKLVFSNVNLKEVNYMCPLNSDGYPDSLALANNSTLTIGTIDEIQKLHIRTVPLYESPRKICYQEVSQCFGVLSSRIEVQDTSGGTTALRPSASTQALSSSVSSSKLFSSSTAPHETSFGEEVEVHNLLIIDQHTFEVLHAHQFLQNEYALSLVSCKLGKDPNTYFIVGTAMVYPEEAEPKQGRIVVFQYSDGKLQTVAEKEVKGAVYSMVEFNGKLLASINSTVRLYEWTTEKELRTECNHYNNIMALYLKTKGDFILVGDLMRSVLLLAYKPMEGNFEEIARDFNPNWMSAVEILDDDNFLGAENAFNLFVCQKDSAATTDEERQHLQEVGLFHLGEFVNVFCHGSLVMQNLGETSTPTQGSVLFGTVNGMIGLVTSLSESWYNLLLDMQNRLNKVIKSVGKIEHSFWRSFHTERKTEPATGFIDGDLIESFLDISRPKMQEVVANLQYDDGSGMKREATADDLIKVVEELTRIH", "test": "TR-FRET Kd determination, quadratic fit, 50 nM or 10 nM CDK12–cyclin K", "type": "binding", "text": "Equation (2) is a quadratic binding equation used for Kd determination,where Top and Bottom refer to the curve plateaus. […]"}, "[3]": {"settings": "Compound 1.02544 nM, raw replicates, experiment r1-r11"}, "[4]": {"settings": "Compound 3.15521 nM, raw replicates, experiment r1-r11"}, "[5]": {"settings": "Compound 9.46563 nM, raw replicates, experiment r1-r11"}, "[6]": {"settings": "Compound 31.5521 nM, raw replicates, experiment r1-r11"}, "[7]": {"settings": "Compound 99.3891 nM, raw replicates, experiment r1-r11"}, "[8]": {"settings": "Compound 315.521 nM, raw replicates, experiment r1-r11"}, "[9]": {"settings": "Compound 3155.21 nM, raw replicates, experiment r1-r11"}, "[10]": {"settings": "Compound 10002 nM, raw replicates, experiment r1-r11"}, "[11]": {"settings": "Supplementary Table 2, read-out: Lanthascreen IC50 [nM] CDK2"}, "[12]": {"settings": "10 nM CDK12-cyclin K + 100 nM DDB1, n = 1"}},
  "note": "Several values for one entry are separate records, joined by “and”; a condition that tells them apart may be missing. Equal values may be shown once. Read-outs that look alike come from different tables or passages of the source.",
  "data": [
    {"smiles": "Cc1ccc(C(=O)N2CSCC2C(=O)Nc2ncc(C)s2)o1", "note": "(stereo not drawn) [dCeMM4]", "values": [
      {"measurement": "Lanthascreen signal, sheet CDK2", "setting": "[1]; Compound 0.038147 nM, raw replicates, experiment r13-r23", "result": "0.01291 and 0.01309"},
      {"measurement": "Lanthascreen signal, sheet CDK2", "setting": "[1]; Compound 0.038147 nM, raw replicates, experiment r48-r58", "result": "0.01261 and 0.01224"},
      {"measurement": "Lanthascreen signal, sheet CDK2", "setting": "[1]; Compound 0.152588 nM, raw replicates, experiment r13-r23", "result": "0.01309 and 0.01357"},
      {"measurement": "Lanthascreen signal, sheet CDK2", "setting": "[1]; Compound 0.152588 nM, raw replicates, experiment r48-r58", "result": "0.01492 and 0.0157"},
      {"measurement": "Lanthascreen signal, sheet CDK2", "setting": "[1]; Compound 0.610352 nM, raw replicates, experiment r13-r23", "result": "0.01337 and 0.01331"},
      {"measurement": "Lanthascreen signal, sheet CDK2", "setting": "[1]; Compound 0.610352 nM, raw replicates, experiment r48-r58", "result": "0.01553 and 0.01443"},
      {"measurement": "Lanthascreen signal, sheet CDK2", "setting": "[1]; [3]", "result": "0.008871 and 0.008854"},
      {"measurement": "Lanthascreen signal, sheet CDK2", "setting": "[1]; [4]", "result": "0.01028 and 0.01056"},
      {"measurement": "Lanthascreen signal, sheet CDK2", "setting": "[1]; [5]", "result": "0.01086 and 0.009918"},
      {"measurement": "Lanthascreen signal, sheet CDK2", "setting": "[1]; Compound 9.76563 nM, raw replicates, experiment r13-r23", "result": "0.01301 and 0.01353"},
      {"measurement": "Lanthascreen signal, sheet CDK2", "setting": "[1]; Compound 9.76563 nM, raw replicates, experiment r48-r58", "result": "0.01491 and 0.01554"},
      {"measurement": "Lanthascreen signal, sheet CDK2", "setting": "[1]; [6]", "result": "0.008252 and 0.009758"},
      {"measurement": "Lanthascreen signal, sheet CDK2", "setting": "[1]; Compound 39.0625 nM, raw replicates, experiment r13-r23", "result": "0.01344 and 0.01357"},
      {"measurement": "Lanthascreen signal, sheet CDK2", "setting": "[1]; Compound 39.0625 nM, raw replicates, experiment r48-r58", "result": "0.01615 and 0.01531"},
      {"measurement": "Lanthascreen signal, sheet CDK2", "setting": "[1]; [7]", "result": "0.01148 and 0.009734"},
      {"measurement": "Lanthascreen signal, sheet CDK2", "setting": "[1]; Compound 156.25 nM, raw replicates, experiment r13-r23", "result": "0.01338 and 0.01316"},
      {"measurement": "Lanthascreen signal, sheet CDK2", "setting": "[1]; Compound 156.25 nM, raw replicates, experiment r48-r58", "result": "0.01495 and 0.01468"},
      {"measurement": "Lanthascreen signal, sheet CDK2", "setting": "[1]; [8]", "result": "0.01013 and 0.01019"},
      {"measurement": "Lanthascreen signal, sheet CDK2", "setting": "[1]; Compound 625 nM, raw replicates, experiment r13-r23", "result": "0.01286 and 0.01329"},
      {"measurement": "Lanthascreen signal, sheet CDK2", "setting": "[1]; Compound 625 nM, raw replicates, experiment r48-r58", "result": "0.01515 and 0.01544"},
      {"measurement": "Lanthascreen signal, sheet CDK2", "setting": "[1]; Compound 2500 nM, raw replicates, experiment r13-r23", "result": "0.01297 and 0.01246"},
      {"measurement": "Lanthascreen signal, sheet CDK2", "setting": "[1]; Compound 2500 nM, raw replicates, experiment r48-r58", "result": "0.0142 and 0.01439"},
      {"measurement": "Lanthascreen signal, sheet CDK2", "setting": "[1]; [9]", "result": "0.01019 and 0.009543"},
      {"measurement": "Lanthascreen signal, sheet CDK2", "setting": "[1]; Compound 10000 nM, raw replicates, experiment r13-r23", "result": "0.01011 and 0.01128"},
      {"measurement": "Lanthascreen signal, sheet CDK2", "setting": "[1]; Compound 10000 nM, raw replicates, experiment r48-r58", "result": "0.01389 and 0.01345"},
      {"measurement": "Lanthascreen signal, sheet CDK2", "setting": "[1]; [10]", "result": "0.009534 and 0.01103"},
      {"measurement": "IC50", "setting": "[1]; Lanthascreen, average, Extended Data Fig. 8, read-out: CDK2 IC50", "result": "> 10000", "unit": "nM"},
      {"measurement": "IC50", "setting": "[1]; [11]", "result": "> 10000", "unit": "nM"}
    ]},
    {"smiles": "Cc1cc2nc(CNc3nc(N4CCN(C)CC4)nc4c(Br)cnn34)[nH]c2cc1C", "note": "[DS73, reference compound]", "values": [
      {"measurement": "Kd", "setting": "[2]; [12]", "result": "0.0002 ± 0.0003", "unit": "µM"},
      {"measurement": "TR-FRET Kd*", "setting": "[2]; [12]", "result": "subnanomolar range"},
      {"measurement": "TR-FRET signal", "setting": "[2]; 10 nM CDK12-cyclin K, compound 0.468 nM", "result": 0.1115},
      {"measurement": "TR-FRET signal", "setting": "[2]; 10 nM CDK12-cyclin K, compound 2.16 nM", "result": 0.172},
      {"measurement": "TR-FRET signal", "setting": "[2]; 10 nM CDK12-cyclin K, compound 3.6 nM", "result": 0.3284},
      {"measurement": "TR-FRET signal", "setting": "[2]; 10 nM CDK12-cyclin K, compound 7.92 nM", "result": 0.4288},
      {"measurement": "TR-FRET signal", "setting": "[2]; 10 nM CDK12-cyclin K, compound 15.84 nM", "result": 0.4992},
      {"measurement": "TR-FRET signal", "setting": "[2]; 10 nM CDK12-cyclin K, compound 30.96 nM", "result": 0.5275},
      {"measurement": "TR-FRET signal", "setting": "[2]; 10 nM CDK12-cyclin K, compound 62.6399 nM", "result": 0.5247},
      {"measurement": "TR-FRET signal", "setting": "[2]; 10 nM CDK12-cyclin K, compound 125.279 nM", "result": 0.5329},
      {"measurement": "TR-FRET signal", "setting": "[2]; 10 nM CDK12-cyclin K, compound 244.8 nM", "result": 0.5439},
      {"measurement": "TR-FRET signal", "setting": "[2]; 10 nM CDK12-cyclin K, compound 993.6 nM", "result": 0.5387},
      {"measurement": "TR-FRET signal", "setting": "[2]; 10 nM CDK12-cyclin K, compound 2001.6 nM", "result": 0.5235},
      {"measurement": "Kd", "setting": "[2]; 50 nM CDK12-cyclin K + 100 nM DDB1, n = 1", "result": "0.002 ± 0.001", "unit": "µM"},
      {"measurement": "TR-FRET signal", "setting": "[2]; 50 nM CDK12-cyclin K, compound 0.468 nM", "result": 0.2245},
      {"measurement": "TR-FRET signal", "setting": "[2]; 50 nM CDK12-cyclin K, compound 2.16 nM", "result": 0.505},
      {"measurement": "TR-FRET signal", "setting": "[2]; 50 nM CDK12-cyclin K, compound 3.6 nM", "result": 0.4237},
      {"measurement": "TR-FRET signal", "setting": "[2]; 50 nM CDK12-cyclin K, compound 7.92 nM", "result": 0.5318},
      {"measurement": "TR-FRET signal", "setting": "[2]; 50 nM CDK12-cyclin K, compound 15.84 nM", "result": 0.9093},
      {"measurement": "TR-FRET signal", "setting": "[2]; 50 nM CDK12-cyclin K, compound 30.96 nM", "result": 1.797},
      {"measurement": "TR-FRET signal", "setting": "[2]; 50 nM CDK12-cyclin K, compound 62.6399 nM", "result": 2.967},
      {"measurement": "TR-FRET signal", "setting": "[2]; 50 nM CDK12-cyclin K, compound 125.279 nM", "result": 3.159},
      {"measurement": "TR-FRET signal", "setting": "[2]; 50 nM CDK12-cyclin K, compound 244.8 nM", "result": 3.183},
      {"measurement": "TR-FRET signal", "setting": "[2]; 50 nM CDK12-cyclin K, compound 993.6 nM", "result": 3.081},
      {"measurement": "TR-FRET signal", "setting": "[2]; 50 nM CDK12-cyclin K, compound 2001.6 nM", "result": 3.197},
      {"measurement": "Lanthascreen signal, sheet CDK2", "setting": "[1]; [3]", "result": "0.01165 and 0.01109"},
      {"measurement": "Lanthascreen signal, sheet CDK2", "setting": "[1]; [4]", "result": "0.008478 and 0.00993"},
      {"measurement": "Lanthascreen signal, sheet CDK2", "setting": "[1]; Compound 4.57247 nM, experiment r25-r34", "result": 0.01637},
      {"measurement": "Lanthascreen signal, sheet CDK2", "setting": "[1]; [5]", "result": "0.009994 and 0.009998"},
      {"measurement": "Lanthascreen signal, sheet CDK2", "setting": "[1]; Compound 13.7174 nM, experiment r25-r34", "result": 0.01615},
      {"measurement": "Lanthascreen signal, sheet CDK2", "setting": "[1]; [6]", "result": "0.01039 and 0.01091"},
      {"measurement": "Lanthascreen signal, sheet CDK2", "setting": "[1]; Compound 41.1523 nM, experiment r25-r34", "result": 0.01569},
      {"measurement": "Lanthascreen signal, sheet CDK2", "setting": "[1]; [7]", "result": "0.0115 and 0.01029"},
      {"measurement": "Lanthascreen signal, sheet CDK2", "setting": "[1]; Compound 123.457 nM, experiment r25-r34", "result": 0.01519},
      {"measurement": "Lanthascreen signal, sheet CDK2", "setting": "[1]; [8]", "result": "0.008046 and 0.01008"},
      {"measurement": "Lanthascreen signal, sheet CDK2", "setting": "[1]; Compound 370.37 nM, experiment r25-r34", "result": 0.01387},
      {"measurement": "Lanthascreen signal, sheet CDK2", "setting": "[1]; [9]", "result": "0.007483 and 0.007205"},
      {"measurement": "Lanthascreen signal, sheet CDK2", "setting": "[1]; Compound 3333.33 nM, experiment r25-r34", "result": 0.009102},
      {"measurement": "Lanthascreen signal, sheet CDK2", "setting": "[1]; Compound 10000 nM, experiment r25-r34", "result": 0.006383},
      {"measurement": "Lanthascreen signal, sheet CDK2", "setting": "[1]; [10]", "result": "0.003415 and 0.004039"},
      {"measurement": "IC50", "setting": "[1]; [11]", "result": 6120, "unit": "nM"}
    ]}
  ]
}
